The test has as its target T1, UCP1 (Mus musculus, UniProt P12242).
T1 construct: native full-length protein in the inner mitochondrial membrane; mitoplasts from brown (or beige) fat; no tags
T1 sequence (P12242 1-307): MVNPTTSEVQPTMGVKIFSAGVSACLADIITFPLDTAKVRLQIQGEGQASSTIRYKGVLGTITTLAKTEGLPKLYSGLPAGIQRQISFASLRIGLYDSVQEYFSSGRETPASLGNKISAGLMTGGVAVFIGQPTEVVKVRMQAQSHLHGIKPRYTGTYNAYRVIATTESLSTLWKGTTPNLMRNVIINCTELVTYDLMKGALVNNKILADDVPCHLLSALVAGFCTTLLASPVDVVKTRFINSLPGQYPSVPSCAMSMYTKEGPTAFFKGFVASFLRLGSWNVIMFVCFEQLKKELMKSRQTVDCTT
In words: whole-mitoplast patch-clamp, inhibition of H+ current. To be noted: Mg2+-free ATP, cytosolic side; current activated by 0.2 mM oleic acid / 10 mM MβCD; symmetrical pH 7.0; competitive with fatty acid; figure reproduced from the same laboratory's Fedorenko et al. 2012. It counts as biochemical.

With `Nc1ncnc2c1ncn2[C@@H]1O[C@H](COP(=O)(O)OP(=O)(O)OP(=O)(O)O)[C@@H](O)[C@H]1O` [ATP], the IC50 is 2100 ± 100 nM.
